Legend:
[1] = tested on: promoter of the human klotho gene; experiment: Luciferase expression experiment, human klotho promoter reporter (1.7 kbp or 240 bp) in RPTEC cells; format: cell-based; details: 5 μM, 24 hours, promoter 1.7 kbp or 240 bp, among Comparative Examples 1 to 4, FIG. 1
Experimental: (§1) In order to evaluate whether the klotho gene was expressed by the evaluation of luciferase activity, human renal proximal tubule epithelial cells (RPTECs) (ATCC CRL-4031), which are epithelial cells of the proximal tubule of the human kidneys, were purchased from Lonza, USA and used.
(§2) For culturing, a Renal Epithelial Growth Medium (REGM™) Bullet kit, also manufactured by the same Lonza company, was used, and the cells were cultured under conditions of 37° C. and 5% CO2. As a plasmid for luciferase expression, a plasmid in which the promoter site of a human KL (klotho) gene was disposed to regulate the expression of a firefly luciferase gene was used.
The plasmid was incorporated into cells using an X-treme GENE transfection reagent from Roche. The activity of luciferase expressed in cells was measured using a Dual-Luciferase reporter assay system manufactured by Promega. After the cultured cells were treated with each compound at an indicated concentration for 24 hours, the activity of luciferase was measured. It is indirectly shown that the expression of the klotho gene may be increased when the activity of luciferase is high. […]

[2] = tested on: promoter of the human klotho gene; experiment: Luciferase expression experiment, reporter gene pHKP-luc (promoter up to -2.1 kb upstream of human klotho gene) in RPTECs; format: cell-based
Experimental: as §1, §2
The plasmid was incorporated into cells using an X-treme GENE transfection reagent from Roche. The activity of luciferase expressed in cells was measured using a Dual-Luciferase reporter assay system manufactured by Promega. After the cultured cells were treated with each compound at an indicated concentration for 24 hours, the activity of luciferase was measured. It is indirectly shown that the expression of the klotho gene may be increased when the activity of luciferase is high.
The results of confirming the expression of a reporter gene by treating RPTECs, which are epithelial cells of the proximal tubule of the human kidneys, with Examples 1 to 6 at concentrations of 0.5, 1 and 5 μM and Comparative Example 1 at a concentration of 5 μM and using a reporter gene (pHKP-luc) including a promoter included up to −2.1 kb upstream of the human klotho gene are illustrated in FIGS. 2 and 3.

[3] = tested on: klotho (KL) gene; experiment: Quantitative evaluation of klotho (KL) gene expression level using real-time PCR in RPTEC cells; format: cell-based, human; details: treated for 6 hours, FIG. 4
Experimental: For RNA extraction from RPTEC cells, which are epithelial cells of the proximal tubule of the human kidneys, treated with the compounds of Comparative Example 1 and Examples 1 and 2 for 6 hours, an RNeasy kit from Qiagen Inc. was used. The results of preparing cDNA from extracted RNA using a Superscript II kit from Thermo Fisher Scientific, Inc. and performing the quantitative evaluation using Taqman Gene Expression assays from Applied Biosystems as a klotho (KL) gene-specific kit are illustrated in FIG. 4.

[4] = tested on: chronic kidney disease model; experiment: Chronic kidney disease model (db/db mice, high protein diet); format: in vivo; details: oral gavage daily 2, 10, 50 mg/kg
Excerpt: For the chronic kidney disease model, 20 db/m mice (10 5-week-old mice, 10 6-week-old mice) and 50 db/db mice (25 5-week-old mice and 25 6-week-old mice) were imported from Jackson Lab, USA, and after the adaptation period, the experiment was started (mouse model number JAX 000642-BKS.Cg-Dock7m+/+Leprdb/j5W/M Wildtype for Dock7m, BKS.Cg-Dock7m+/+Leprdb/j 5W/M Heterozygous for Dock7m). Each group was divided into set1 and set2 due to the large number of mice, with 5-week-old mice as set2, and the experiment was conducted one week later so that all mice were in the experiment from 6 weeks of age. After measuring the body weight, the mice were evenly distributed in each group and fed a normal diet (ND) and a high protein diet (HPD). After 3 weeks on the high protein diet, 2-hour urine samples were collected via a metabolic cage for analysis. […] After 12 weeks of drug administration, mice were sacrificed, and blood and organs were obtained for hematology and tissue analysis. Urine analysis was performed at SCL healthcare center, and blood analysis was performed using I-STAT cartridge (CHEM 8+).
The animals were anesthetized with anesthetic and perfusion-fixed with fixative (Periodate-Lysine-2% paraformaldehyde) through the heart for 8 minutes. Additional fixation was performed at 4° C. for 16 hours or more in the same fixative. After undergoing a dehydration process through an alcohol series, the tissue slides were prepared by embedding in wax and then cutting to 5 μm. After the tissue was hydrated again through the hydration process, it was immersed in a citric acid solution of pH 6 and heated to retrieve the aldehyde-fixed protein. Endogenous peroxidase was then blocked by treatment with 1.7% H2O2 in methanol for 30 minutes, followed by treatment with 0.5% triton X-100 in PBS for 15 minutes to increase the penetration of the antibody. […] Using more than 100 photographs for each group, the expressed areas were quantified using a color image analyzer (TDI Scope Eye version 3.6 for windows; Olympus, Japan) (FIG. 14). […]

[5] = tested on: klotho protein; experiment: Klotho protein expression level in cisplatin-treated HK-2 cells; format: cell-based, human; details: FIG. 7B
Experimental: As in the protocol in FIG. 7A, a disease model was made by treating HK-2 cells (human renal cells) with cisplatin (20 μM), and then treated with a KS1 compound (Example 10) (3 μM). After 24 hours, the expression degree of the klotho protein was confirmed by obtaining the cells.

[6] = tested on: unilateral ureter obstruction model; experiment: Unilateral ureter obstruction (UUO) model; format: in vivo; details: mice, 20 mg/kg/day into the abdominal cavity
Experimental: In a unilateral ureter obstruction model, 5-week-old male […] mice were used. After the right ureter was tied with a thread to create a unilateral ureter obstruction model, the KS1 compound (20 mg/kg/day) was injected into the abdominal cavity daily starting 24 hours later. After that, samples were collected by sacrificing the mice on days 7 and 14 and tested (FIG. 8A). H&E staining was performed to investigate changes in the nucleus and cytoplasm in the unilateral ureter obstruction model, and the results are illustrated in FIG. 9. […] In addition, Sirius Red staining was performed to investigate the change according to the progress of fibrosis in the unilateral ureter obstruction model. […] TUNEL staining was performed to investigate the degree of apoptosis in the unilateral ureter obstruction model.

[7] = tested on: human kidney-2 (HK2) cells; experiment: Toxicity test (EZ-Cytox) in HK2 cells; format: cell-based; details: 12.5 μM or 25 μM, 24 hours, FIG. 6
Experimental: Cultured human kidney-2 (HK2) cells were treated with Comparative Example 1, Example 2 and Examples 9 to 10 at a concentration of 25 μM or 12.5 μM, and after 24 hours, cytotoxicity was measured using an EZ-Cytox kit.

[8] = tested on: klotho (KL) gene; experiment: Quantitative evaluation of klotho (KL) gene expression level using general PCR in RPTEC cells; format: cell-based, human; details: 2.5 μM, 6 hours, FIG. 5
Experimental: After RPTEC cells, which are epithelial cells of the proximal tubule of the human kidneys, were each treated with the compounds of Examples 7 to 10 at 2.5 μM for 6 hours, RNA was extracted from the cells, and cDNA was prepared from the extracted RNA using a Superscript II kit from Thermo Fisher Scientific, Inc., and then general PCR was performed.
Information on the primers used in the experiment is as follows. • KL-F […] (SEQ ID NO: 1) • KL-R […] (SEQ ID NO: 2) • GAPDH-F […] (SEQ ID NO: 3) • GAPDH-R […] (SEQ ID NO: 4)
The DNA amplified by PCR was confirmed by staining with ethidium bromide after electrophoresis on an agarose gel, and the amounts of DNA in the band were quantitatively compared using the SPEedyQuant program, and are illustrated in FIG. 5.

[9] = RPTECs, Examples at 0.5, 1 and 5 μM, Comparative Example 1 at 5 μM, FIG. 2

SMILES: O=C(Nc1ccccc1Cl)c1c[nH]c2ccccc12 [Comparative Example 1, N-(2-chlorophenyl)-1H-indole-3-carboxamide]
- luciferase activity (klotho promoter reporter) [1]: the highest

SMILES: O=C(Nc1nc2ccccc2o1)c1ccc([N+](=O)[O-])cc1Cl [Example 1, N-(benzo[d]oxazol-2-yl)-2-chloro-4-nitrobenzamide]
- expression of the reporter gene (pHKP-luc) [2, 9]: at a level similar to that of Comparative Example 1

SMILES: Cc1ccc2oc(Nc3ccc(Cl)c(Cl)c3)nc2c1 [Example 2]
- expression of the reporter gene (pHKP-luc) ([2]; RPTEC cells, 5 μM, FIG. 3): at a level similar to that of Comparative Example 1
- expression of the reporter gene (pHKP-luc) [2, 9]: at a level similar to that of Comparative Example 1
- klotho (KL) gene mRNA expression level (real-time PCR) [3]: at a level similar to that of Comparative Example 1

SMILES: Fc1ccc(Nc2nc3ccccc3o2)cc1F [Example 10, N-(3,4-difluorophenyl)benzo[d]oxazol-2-amine]
- expression of klotho protein (immunohistochemistry, kidney) ([4]; 12 weeks, FIG. 14, 15): statistically significantly (p<0.05) increased
- blood urea nitrogen (BUN) ([4]; 12 weeks, FIG. 17): statistically significant (p<0.05) decrease
- microalbumin level in urine (in proportion to creatinine) ([4]; FIG. 16): statistically significant (p<0.05) decrease
- expression of the klotho protein ([5]; HK-2 cells, cisplatin (20 μM) disease model, then 3 μM compound, 24 hours): increased
- renal hypertrophy (kidney size) ([6]; FIG. 8B): no difference in size
- nuclear and cytoplasmic changes, tissue destruction (H&E staining) ([6]; one-week and two-week samples, FIG. 9): a large reduction in tissue destruction
- klotho protein expression ([6]; one-week sample, FIG. 12): increased
- fibrosis (Sirius Red staining) ([6]; vs UUO model not treated, FIG. 10): fibrosis occurred less
- apoptosis (TUNEL staining) ([6]; vs UUO model not treated, FIG. 11): remarkably reduced
- MMP-9 protein expression level (inflammation marker) ([6]; week 1 and week 2, FIG. 13): remarkably reduced
- improvement of toxicity compared to Comparative Example 1 [7]: ≥ 20%
- toxicity (cytotoxicity, EZ-Cytox) [7]: the least toxicity
- expression level of the klotho (KL) gene, relative to the level of Comparative Example 1 [8]: about 10 times

SMILES: N.N.[Cl][Pt][Cl] [cisplatin, reference compound]
- expression of the klotho protein ([5]; HK-2 cells treated with cisplatin (20 μM) alone): decreased
